Reference: US20050279350A1, “Methods and apparatus for relieving headaches, rhinitis and other common ailments” (priority 1999, published 2005)
Marks after values point to notes of the source that are not given here.

Assays:
[1] = tested on: mucous membrane of the nose, nasal passages, and mouth; experiment: Effective and tolerable carbon dioxide flows found by the inventors (description); type: in vivo, human
Description: Furthermore, chronic inflammation of the mucosa and associated distress, caused by extended exposure to allergens and/or antigens, may be relieved within a few minutes by repeating such carbon dioxide applications. A possible mechanism of action of the above described local carbon dioxide treatment is the following. Creating a high concentration of carbon dioxide (hypercapnia) by infusing it into the nasal passages causes a very fast lowering of the pH (making more acidic) of the mucous membranes depressing the neuronal activity (inhibiting inflammatory mediator release such as histamine) of the nerves that supply the nasal mucous membranes and connect directly to the brainstem. Asthma is known to be a comorbid disease to allergic rhinitis. […] In addition, it is known that oxygenation is improved in patients with status asthmaticus, chronic obstructive pulmonary disease, and bronchiolitis by inhalation of helium. Also, inhaled nitric oxide improves the oxygenation and ventilation of most children with acute, hypoxic respiratory failure. For this reason, these respiratory ailments can be reduced or relieved by administering the above-described treatment using carbon dioxide or helium or nitric oxide. Furthermore, headaches (e.g., migraine headaches, tension-type headaches, cluster headaches, jaw pain, facial pain) are thought to be due to triggers creating a hyperexcitability state of nerves releasing inflammatory mediators such as histamine and serotonin. For this reason, headaches can be reduced or relieved by administering the above-described carbon dioxide treatment. Epilepsy, also a nervous hyperexcitability state, is known to be a comorbid disease to headaches and antiepileptic medications are used for migraine prevention. For this reason, epilepsy can be reduced or relieved by administering the above-described carbon dioxide treatment. […] Furthermore, other gases such as nitric oxide, oxygen, helium, and others may be administered similarly as therapeutic gases via the convenient hand-held easily controlled dispenser.
Furthermore, it is desirable that the user be able to conveniently but precisely and controllably select a rate and duration of carbon dioxide flow that lies between the lower limit of effectiveness and the upper limit of tolerance. […] Flows as low as 1 cc/sec for 1-2 seconds into the nose are effective for suppression of onset of acute allergic symptoms, whereas flows of 4-5 cc/sec for 5-10 seconds are typically selected for optimum relief from a mild chronic allergy attack. For severely inflamed mucosa and/or for injection into the mouth, flows as high as 10 cc/sec or higher for as long as 15 seconds or longer often are selected for optimum relief. For the treatment of tension and migraine headaches, the flow durations can be substantially longer, as generally set forth in the Dosage Guideline (Table I) above.
At low flow rates, the presence of the carbon dioxide produces a “tingling” sensation similar to that produced during drinking of carbonated beverages that inadvertently enter the nasal passages e.g., “bubbles up the nose”. This is the effective rate and the tingling is a welcome sensation because it usually coincides with immediate relief of symptoms. Above a certain subjectively determined flow rate the sensation becomes unpleasant, which may be described as a “stinging” or “burning” sensation. At a still higher flow rate (maximum tolerable rate), the stinging sensation becomes intolerable and subjects remove the device from their nostril. […] More typically, an injection rate of up to 10 cc/sec can be tolerated for 5 seconds or more into the nose by most users and into the mouth by almost all users. It must be noted, however, that the tolerance level depends strongly on the sequential phase of the application and on the degree of inflammation and/or pain at that phase. […]

[2] = tested on: human subjects; experiment: Effective and maximum tolerable nasal and oral carbon dioxide flow rates measured with laboratory apparatus; type: in vivo
Description: The test device was a hand-held, multi-dose, disposable, dispenser that was approximately 3 to 4 inches long and 6/8 to ⅞ inches in diameter constructed as described above. The device consisted of a plastic twist-top flow regulator mounted on top of a pressurized steel cartridge containing liquid carbon dioxide. The tip of the flow regulator has a nosepiece that is the optimal size and configuration to place against and seal off a nostril for administration of the gas. In a number of subjects, the effective nasal and oral carbon dioxide flow rates, and maximum tolerable nasal and oral flow rates, were measured using a laboratory apparatus. This apparatus consisted of a flow regulator connected via tubing to a flow meter and a large tank of carbon dioxide. These flow data were used, together with the number of seconds gas was administered during therapy, to calculate the estimated dose of gas in milliliters.
Initially, the effective nasal and oral, and maximum tolerable nasal and oral carbon dioxide flow rates were measured in seven subjects using a laboratory apparatus. The flow rate selected that is effective or the maximum tolerable rate varies with the individual. At low flow rates, the presence of the carbon dioxide produces a “tingling” sensation similar to that produced during drinking of carbonated beverages that inadvertently enter the nasal passages e.g., “bubbles up the nose”. This is the effective rate and the tingling is a welcome sensation because it usually coincides with immediate relief of symptoms. Above a certain subjectively determined flow rate the sensation becomes unpleasant, which may be described as a “stinging” or “burning” sensation. At a still higher flow rate (maximum tolerable rate), the stinging sensation becomes intolerable and subjects remove the device from their nostril. Also, subjects are more sensitive to the first does of a series for one attack; subsequent doses give less or no sensation. […] The typical effective rate nasally was 1 to 5 ml/sec and 5 to 10 ml/sec orally.

[3] = subject five, experience w/device 0
[4] = subject four, experience w/device 0
[5] = subject one, experience w/device >1000
[6] = subject six, experience w/device 0
[7] = subject three, experience w/device >1000
[8] = subject two, experience w/device 0
[9] = subject, experience w/device >10

O=C=O [carbon dioxide]
tolerance level ([1]; a few individuals, a second or less of injection into the nose): 1-2 cc/sec | suppression of onset of acute irritation of the mucosa ([1]; bathing mucous membrane of nose, nasal passages and mouth with gaseous carbon dioxide): times as short as one second can suppress the onset of acute irritation of the mucosa | effective flow ([1]; for 1-2 seconds into the nose, suppression of onset of acute allergic symptoms): ≥ 1 cc/sec | flow typically selected for optimum relief ([1]; for 5-10 seconds, mild chronic allergy attack): 4-5 cc/sec | tolerated injection rate ([1]; for 5 seconds or more, into the nose by most users and into the mouth by almost all users): up to 10 cc/sec | flow often selected for optimum relief ([1]; severely inflamed mucosa and/or injection into the mouth, for as long as 15 seconds or longer): ≥ 10 cc/sec | tolerance level ([1]; typically, at the onset of the first carbon dioxide injection): < 3 cc/sec | tolerance of high flow rates, oral versus nasal ([2]; seven subjects): better tolerated orally than nasally | Effective Nasal Rate [2, 3]: 1 to 2 mL/s | Effective Oral Rate [2, 3]: 5 to 10 mL/s | Max Tolerable Nasal Rate [2, 3]: 3 mL/s | Max Tolerable Oral Rate [2, 3]: >10* ml/sec | Effective Nasal Rate [2, 4]: 2 mL/s | Effective Oral Rate [2, 4]: 2 mL/s | Max Tolerable Nasal Rate [2, 4]: 4 mL/s | Max Tolerable Oral Rate [2, 4]: >10* ml/sec | Effective Nasal Rate [2, 5]: 4 to 5 mL/s | Effective Oral Rate [2, 5]: 5 to 10 mL/s | Max Tolerable Nasal Rate [2, 5]: 10 mL/s | Max Tolerable Oral Rate [2, 5]: >10* ml/sec | Effective Nasal Rate [2, 6]: <1 mL/s | Effective Oral Rate [2, 6]: 5 to 10 mL/s | Max Tolerable Nasal Rate [2, 6]: 2 mL/s | Max Tolerable Oral Rate [2, 6]: >10* ml/sec | Effective Nasal Rate [2, 7]: 4 to 5 mL/s | Effective Oral Rate [2, 7]: 5 to 10 mL/s | Max Tolerable Nasal Rate [2, 7]: 10 mL/s | Max Tolerable Oral Rate [2, 7]: >10* ml/sec | Effective Nasal Rate [2, 8]: <1 mL/s | Effective Oral Rate [2, 8]: >10* ml/sec | Max Tolerable Nasal Rate [2, 8]: <1 mL/s | Max Tolerable Oral Rate [2, 8]: >10* ml/sec | Effective Nasal Rate [2, 9]: 4 to 5 mL/s | Effective Oral Rate [2, 9]: 5 to 10 mL/s | Max Tolerable Nasal Rate [2, 9]: 10 mL/s | Max Tolerable Oral Rate [2, 9]: >10* ml/sec
